Measurements taken from patent US20230159532A1, “PARATHYROID HORMONE (PTH) RECEPTOR ANTAGONISTS AND USES THEREOF” (Crinetics Pharmaceuticals, Inc., priority 2021, published 2023).

Biological target: T1, human PTHR1 receptor (Homo sapiens, UniProt Q03431)
T1 construct: purchased Eurofins HTS030M
T1 sequence (Q03431 27-593): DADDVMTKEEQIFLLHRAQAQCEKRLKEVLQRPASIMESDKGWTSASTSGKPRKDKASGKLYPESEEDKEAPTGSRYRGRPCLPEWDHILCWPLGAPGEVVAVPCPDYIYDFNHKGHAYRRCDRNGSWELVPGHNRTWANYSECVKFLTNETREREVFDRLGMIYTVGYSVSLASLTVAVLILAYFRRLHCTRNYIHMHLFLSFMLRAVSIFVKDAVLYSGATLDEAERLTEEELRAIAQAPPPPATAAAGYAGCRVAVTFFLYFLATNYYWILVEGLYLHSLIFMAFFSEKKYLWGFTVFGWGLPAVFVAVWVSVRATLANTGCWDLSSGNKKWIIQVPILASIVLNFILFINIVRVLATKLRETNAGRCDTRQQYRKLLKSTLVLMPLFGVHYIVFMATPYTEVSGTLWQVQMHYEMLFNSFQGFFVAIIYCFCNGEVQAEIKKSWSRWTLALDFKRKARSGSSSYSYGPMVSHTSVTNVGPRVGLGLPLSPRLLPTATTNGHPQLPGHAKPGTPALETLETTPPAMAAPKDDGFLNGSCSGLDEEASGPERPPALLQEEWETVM
Experiment: Competitive antagonist binding assay for hPTH-R1 (radioactive competition binding, SPA beads)
Conditions: human PTHR1 membranes, [125I]-[Nle8,18,Tyr34]-PTH(1-34) 0.2 nM, 90 minutes at room temperature; read-out: hPTHR1 Ki
In short: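 Displacement of 0.2 nM radioiodinated [Nle8,18,Tyr34]-PTH(1-34) from membrane-bound human PTHR1 measured by scintillation proximity after 90 min at room temperature. Compounds typically 0-10,000 nM final, pH 7.4 HEPES/Mg/Ca buffer with BSA and detergent. Ki calculated from competition data.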

| SMILES | Ki |
| --- | --- |
| CCN1C(=O)N(c2ccc(NCCNC)cc2F)c2cc(Cl)ccc2-c2cc(Cl)cnc21 [2-8, 4,13-dichloro-8-ethyl-10-(2-fluoro-4-{[2-(methylamino)ethyl]amino}phenyl)-6,8,10-triazatricyclo[9.4.0.0^2,7]pentadeca-1(11),2(7),3,5,12,14-hexaen-9-one] | < 100 nM |
| CCN1C(=O)N(c2ccc(NCCNCCO)cc2)c2cc(Cl)ccc2-c2cc(Cl)cnc21 [2-9, 4,13-dichloro-8-ethyl-10-[4-({2-[(2-hydroxyethyl)amino]ethyl}amino)phenyl]-6,8,10-triazatricyclo[9.4.0.0^2,7]pentadeca-1(11),2(7),3,5,12,14-hexaen-9-one] | < 100 nM |
| CCN1C(=O)N(c2ncc(NCCNC)cc2F)c2cc(Cl)ccc2-c2cc(Cl)cnc21 [2-11, 4,13-dichloro-8-ethyl-10-(3-fluoro-5-{[2-(methylamino)ethyl]amino}pyridin-2-yl)-6,8,10-triazatricyclo[9.4.0.0^2,7]pentadeca-1(11),2(7),3,5,12,14-hexaen-9-one] | < 100 nM |
| CCN1C(=O)N(c2ccc(NCCNC3CCOCC3)cc2F)c2cc(Cl)ccc2-c2cc(Cl)cnc21 [2-12, 4,13-dichloro-8-ethyl-10-[2-fluoro-4-({2-[(oxan-4-yl)amino]ethyl}amino)phenyl]-6,8,10-triazatricyclo[9.4.0.0^2,7]pentadeca-1(11),2(7),3,5,12,14-hexaen-9-one] | < 100 nM |
| CCN1C(=O)N(c2ccc(NCCNC3CCOCC3)cc2)c2cc(Cl)ccc2-c2cc(Cl)cnc21 [2-13, 4,13-dichloro-8-ethyl-10-[4-({2-[(oxan-4-yl)amino]ethyl}amino)phenyl]-6,8,10-triazatricyclo[9.4.0.0^2,7]pentadeca-1(11),2(7),3,5,12,14-hexaen-9-one] | < 100 nM |
| CCN1C(=O)N(c2ncc(NCCNC3CCOCC3)cc2F)c2cc(Cl)ccc2-c2cc(Cl)cnc21 [2-14, 4,13-dichloro-8-ethyl-10-[3-fluoro-5-({2-[(oxan-4-yl)amino]ethyl}amino)pyridin-2-yl]-6,8,10-triazatricyclo[9.4.0.0^2,7]pentadeca-1(11),2(7),3,5,12,14-hexaen-9-one] | < 100 nM |
| CCN1C(=O)N(c2c(F)cc(NCCNC)cc2F)c2cc(Cl)ccc2-c2ccc(C)nc21 [3-1, 13-chloro-10-(2,6-difluoro-4-{[2-(methylamino)ethyl]amino}phenyl)-8-ethyl-5-methyl-6,8,10-triazatricyclo[9.4.0.0^2,7]pentadeca-1(11),2(7),3,5,12,14-hexaen-9-one] | < 100 nM |
| CCN1C(=O)N(c2c(F)cc(NCCNC)cc2F)c2cc(Cl)c(C)cc2-c2cccnc21 [3-3, 13-chloro-10-(2,6-difluoro-4-{[2-(methylamino)ethyl]amino}phenyl)-8-ethyl-14-methyl-6,8,10-triazatricyclo[9.4.0.0^2,7]pentadeca-1(11),2(7),3,5,12,14-hexaen-9-one] | < 100 nM |
| CCN1C(=O)N(c2c(F)cc(NCCNC)cc2F)c2cc(Cl)ccc2-c2c1ncc(Cl)c2C [3-5, 4,13-dichloro-10-(2,6-difluoro-4-{[2-(methylamino)ethyl]amino}phenyl)-8-ethyl-3-methyl-6,8,10-triazatricyclo[9.4.0.0^2,7]pentadeca-1(11),2(7),3,5,12,14-hexaen-9-one] | < 100 nM |
| CCN1C(=O)N(c2c(F)cc(NCCNC)cc2F)c2cc(Cl)ccc2-c2c1ncc(F)c2C [3-7, 13-chloro-10-(2,6-difluoro-4-{[2-(methylamino)ethyl]amino}phenyl)-8-ethyl-4-fluoro-3-methyl-6,8,10-triazatricyclo[9.4.0.0^2,7]pentadeca-1(11),2(7),3,5,12,14-hexaen-9-one] | < 100 nM |
| CCN1C(=O)N(c2c(F)cc(NCCN)cc2F)c2cc(Cl)ccc2-c2c1ncc(Cl)c2C [3-8, 10-{4-[(2-aminoethyl)amino]-2,6-difluorophenyl}-4,13-dichloro-8-ethyl-3-methyl-6,8,10-triazatricyclo[9.4.0.0^2,7]pentadeca-1(11),2(7),3,5,12,14-hexaen-9-one] | 100 to 1000 nM |
| CCN1C(=O)N(c2c(F)cc(NCCNC)cc2F)c2c(ccc(Cl)c2F)-c2cc(Cl)cnc21 [3-9, 4,13-dichloro-10-(2,6-difluoro-4-{[2-(methylamino)ethyl]amino}phenyl)-8-ethyl-12-fluoro-6,8,10-triazatricyclo[9.4.0.0^2,7]pentadeca-1(11),2(7),3,5,12,14-hexaen-9-one] | < 100 nM |
| CCN1C(=O)N(c2c(F)cc(NCCNCCCC(=O)O)cc2F)c2c(ccc(Cl)c2F)-c2cc(Cl)cnc21 [3-11, 4-({2-[(4-{4,13-dichloro-8-ethyl-12-fluoro-9-oxo-6,8,10-triazatricyclo[9.4.0.0^2,7]pentadeca-1(11),2(7),3,5,12,14-hexaen-10-yl}-3,5-difluorophenyl)amino]ethyl}amino)butanoic acid] | < 100 nM |
| CCN1C(=O)N(c2c(F)cc(NCCNC)cc2F)c2cc(Cl)ccc2-c2nc(C#N)ccc21 [3-16, 13-chloro-10-(2,6-difluoro-4-{[2-(methylamino)ethyl]amino}phenyl)-8-ethyl-9-oxo-3,8,10-triazatricyclo[9.4.0.0^2,7]pentadeca-1(11),2(7),3,5,12,14-hexaene-4-carbonitrile] | 1000 to 10000 nM |
| CCN1C(=O)N(c2c(F)cc(NCCNC3CCOCC3)cc2F)c2cc(Cl)ccc2-c2nc(C#N)ccc21 [3-17, 13-chloro-10-[2,6-difluoro-4-({2-[(oxan-4-yl)amino]ethyl}amino)phenyl]-8-ethyl-9-oxo-3,8,10-triazatricyclo[9.4.0.0^2,7]pentadeca-1(11),2(7),3,5,12,14-hexaene-4-carbonitrile] | 1000 to 10000 nM |

Second part, the compound after the results:

| Ki | SMILES |
| --- | --- |
| < 100 nM | CCN1C(=O)N(c2ncc(NCCNCCO)cc2F)c2cc(Cl)ccc2-c2cc(Cl)cnc21 [2-10, 4,13-dichloro-8-ethyl-10-[3-fluoro-5-({2-[(2-hydroxyethyl)amino]ethyl}amino)pyridin-2-yl]-6,8,10-triazatricyclo[9.4.0.0^2,7]pentadeca-1(11),2(7),3,5,12,14-hexaen-9-one] |
| < 100 nM | CCN1C(=O)N(c2c(F)cc(NCCNCCO)cc2F)c2cc(Cl)c(C)cc2-c2cccnc21 [3-2, 13-chloro-10-[2,6-difluoro-4-({2-[(2-hydroxyethyl)amino]ethyl}amino)phenyl]-8-ethyl-14-methyl-6,8,10-triazatricyclo[9.4.0.0^2,7]pentadeca-1(11),2(7),3,5,12,14-hexaen-9-one] |
| < 100 nM | CCN1C(=O)N(c2c(F)cc(NCCNCCO)cc2F)c2cc(Cl)ccc2-c2c1ncc(Cl)c2C [3-4, 4,13-dichloro-10-[2,6-difluoro-4-({2-[(2-hydroxyethyl)amino]ethyl}amino)phenyl]-8-ethyl-3-methyl-6,8,10-triazatricyclo[9.4.0.0^2,7]pentadeca-1(11),2(7),3,5,12,14-hexaen-9-one] |
| < 100 nM | CCN1C(=O)N(c2c(F)cc(NCCNCCO)cc2F)c2cc(Cl)ccc2-c2c1ncc(F)c2C [3-6, 13-chloro-10-[2,6-difluoro-4-({2-[(2-hydroxyethyl)amino]ethyl}amino)phenyl]-8-ethyl-4-fluoro-3-methyl-6,8,10-triazatricyclo[9.4.0.0^2,7]pentadeca-1(11),2(7),3,5,12,14-hexaen-9-one] |
| < 100 nM | CCN1C(=O)N(c2c(F)cc(NCCNCCO)cc2F)c2c(ccc(Cl)c2F)-c2cc(Cl)cnc21 [3-10, 4,13-dichloro-10-[2,6-difluoro-4-({2-[(2-hydroxyethyl)amino]ethyl}amino)phenyl]-8-ethyl-12-fluoro-6,8,10-triazatricyclo[9.4.0.0^2,7]pentadeca-1(11),2(7),3,5,12,14-hexaen-9-one] |
| < 100 nM | CCN1C(=O)N(c2c(F)cc(NCCNCCO)cc2F)c2cc(C#N)ncc2-c2cc(F)cnc21 [3-12, 8-[2,6-difluoro-4-({2-[(2-hydroxyethyl)amino]ethyl}amino)phenyl]-10-ethyl-14-fluoro-9-oxo-4,8,10,12-tetraazatricyclo[9.4.0.0^2,7]pentadeca-1(11),2(7),3,5,12,14-hexaene-5-carbonitrile] |
| < 100 nM | CCN1C(=O)N(c2c(F)cc(NCCNCCO)cc2F)c2cc(C#N)cnc2-c2cc(F)cnc21 [3-13, 8-[2,6-difluoro-4-({2-[(2-hydroxyethyl)amino]ethyl}amino)phenyl]-10-ethyl-14-fluoro-9-oxo-3,8,10,12-tetraazatricyclo[9.4.0.0^2,7]pentadeca-1(11),2(7),3,5,12,14-hexaene-5-carbonitrile] |
| < 100 nM | CCN1C(=O)N(c2c(F)cc(NCCNCCO)cc2F)c2nc(C#N)ccc2-c2cc(F)cnc21 [3-14, 8-[2,6-difluoro-4-({2-[(2-hydroxyethyl)amino]ethyl}amino)phenyl]-10-ethyl-14-fluoro-9-oxo-6,8,10,12-tetraazatricyclo[9.4.0.0^2,7]pentadeca-1(11),2(7),3,5,12,14-hexaene-5-carbonitrile] |
| 1000 to 10000 nM | CCN1C(=O)N(c2c(F)cc(NCCNCCO)cc2F)c2cc(Cl)ccc2-c2nc(C#N)ccc21 [3-15, 13-chloro-10-[2,6-difluoro-4-({2-[(2-hydroxyethyl)amino]ethyl}amino)phenyl]-8-ethyl-9-oxo-3,8,10-triazatricyclo[9.4.0.0^2,7]pentadeca-1(11),2(7),3,5,12,14-hexaene-4-carbonitrile] |
